According to ChEMBL document CHEMBL2384916, “Synthesis and in vitro evaluation of a PDT active BODIPY-NLS conjugate” (Bioorg Med Chem Lett, 2013):

Columns and labels:
[1] = Drug uptake in nucleus of human T24 cells at 100 nM after 30 mins by confocal microscopic analysis; format: ADME, cell-based; conditions: t-24, 0.5 h, 0.1 µM
[2] = Drug uptake in endoplasmic reticulum of human T24 cells at 100 nM after 30 mins by confocal microscopic analysis; format: ADME, cell-based; conditions: t-24, 0.5 h, 0.1 µM
T-24 [3] = experiment: Phototoxicity against human T24 cells assessed as growth inhibition incubated for 4 hrs followed by irradiation for 15 mins measured after 24 hrs by MTT assay; format: functional, cell-based; conditions: T-24, light or radiation study
[4] = Drug uptake in lysosome of human T24 cells at 100 nM after 30 mins by confocal microscopic analysis; format: ADME, cell-based; conditions: t-24, 0.5 h, 0.1 µM
T-24 [5] = experiment: Cytotoxicity against human T24 cells assessed as growth inhibition after 24 hrs by MTT assay in absence of light; format: cell-based; conditions: T-24, 24 h

Q: Which results are given for CC1=C(I)C(C)=[N+]2C1=C(c1ccc(-c3cn(CC(=O)OC(C)(C)C)nn3)cc1)c1c(C)c(I)c(C)n1[B-]2(F)F?
A: Drug uptake [1]: Not Active; Drug uptake [2]: Not Active; IC50 (T-24 [3]): 42 nM; Drug uptake [4]: Active; IC50 (T-24 [5]): > 10000 nM

Q: With CC1=C(I)C(C)=[N+]2C1=C(c1ccc(-c3cn(CC(=O)N4CCC[C@H]4C(=O)N[C@@H](CCCCN)C(=O)N[C@@H](CCCCN)C(=O)N[C@@H](CCCCN)C(=O)N[C@@H](CCCNC(=N)N)C(=O)N[C@@H](CCCCN)C(=O)N[C@H](C(N)=O)C(C)C)nn3)cc1)c1c(C)c(I)c(C)n1[B-]2(F)F as the molecule, how does the Drug uptake [1] read?
A: The Drug uptake was “Not Active”.

Q: What about the Drug uptake [2] of the same molecule?
A: Its Drug uptake is “Active”.

Q: What about the IC50 (T-24 [3]) of the same molecule?
A: The IC50 was 16 nM.

Q: And the Drug uptake [4]?
A: Its Drug uptake is “Active”.

Q: What about the IC50 (T-24 [5]) of the same molecule?
A: The IC50 was greater than 10000 nM.
